The structures appear in SMILES notation. Like-named read-outs stand apart in the source and are kept apart here.

The source of these data is publication PMC4352194, “Physicochemical and Biological Properties of Oxovanadium(IV), Cobalt(II) and Nickel(II) Complexes with Oxydiacetate Anions” (Biological Trace Element Research, 2014).

The nature of data set [1]: Scavenging of superoxide radicals (NBT method). Particulars: complex concentration causing 50 % reduction of superoxide ion referred to that of ascorbic acid; NBT assay in DMSO. As to the method: Nitro blue tetrazolium (NBT, 98 % purity), KO2 (96 % purity) and 18-Crown-6 (99 % purity) were purchased from Sigma-Aldrich. The superoxide scavenging activity of the complexes was determined by using their ability to inhibit the reduction of nitro blue tetrazolium (NBT) by superoxide ions. UV–vis measurements were carried out by using the Perkin-Elmer Lambda 650 spectrophotometer equipped with the temperature control—Peltier system with a scan accuracy of 1 and 1-nm slit width. The measurements were carried out in DMSO solution at 288.15 K according to the method described in the literature. Superoxide free radicals were generated by dissolving 6.5-mg portion of KO2 powder into DMSO (50 mL) together with 90 mg of 18-crown-6-ether. NBT (10 mg) was dissolved directly in DMSO (10 mL). In general, 1.5 mL of DMSO/KO2/18-crown-6 mixture was added to 0.5 mL of the sample to be assayed. The mixture was kept for 20 min and then 0.1 mL of NBT solution was added while stirring. The absorbance was monitored spectrophotometrically at 560 nm. The control test was carried out under the same experimental condition under assumption that KO2 and 18-crown-6 were absent in DMSO.
The ability of the complexes to scavenge superoxide anion radicals was evaluated by the NBT assay. The measurements were carried out in the DMSO solution in which KO2 was dissolved via the use of a crown ether to generate superoxide radicals (see Material and Methods).
The antioxidant activities of the complexes towards O2 ^− were compared to each other. Based on the obtained relationships (Fig. 3), the complex concentrations causing the 50 % reduction of the concentration of the superoxide ion were calculated. The obtained values were referred to the concentration of ascorbic acid causing the same O2 ^− reduction effect measured at the same experimental conditions. In this way, ascorbic acid equivalents of the complexes were obtained. They are equal 0.35, 1.11 and 4.50 for VO(ODA), Ni(ODA) and Co(ODA), respectively.

Data set [2] deals with Human Dermal Fibroblasts adult (HDFa) cell line. The experiment in a line: Cytotoxicity assay (MTT). Type of data set: cell-based. To be noted: for viability of the cells / cytotoxic effect / LC50 / CC50: HDFa, MTT; for viability of the cells: 500 μM; for cytotoxic effect: 1–500 μM; for CC50: read-out: LC50 (the source's name). The method, then: The Human Dermal Fibroblasts adult (HDFa) cell line (Cascade Biologics) was used in all experiments. Unless otherwise specified, cells were grown in the Dulbecco’s modified Eagle’s medium (DMEM) supplemented with 10 % fetal bovine serum (FBS) and 1× antibiotic and antimycotic solutions (all purchased from Sigma) and incubated at 310.15 K in the humidified 5 % CO2 atmosphere.
HDFa cells were plated at 6 × 10^3 cells per well in a 96-well tissue culture plate and incubated overnight at 310.15 K to allow the attachment. The growth medium was substituted with the medium supplemented with tested complex compounds. After 24- or 48-h incubation, the cell viability was assessed using the MTT solution (3-(4,5-dimethylthiazol-2-yl)-2,5-diphenyltetrazolium bromide [Sigma]) at a concentration of 1 mg/mL prepared in the RPMI-1640 medium (Sigma). After 2-h incubation at 310.15 K, the amount of purple formazan product, dissolved in dimethylsulfoxide (DMSO) (Sigma), was quantified by measuring the absorbance at 550 nm.

For data set [3] the test system is unchanged. Nature of the data set: Proliferation assay (BrdU ELISA). Type of data set: cell-based. Particulars: 6 day-exposure, 24-h BrdU incorporation. The method, then: The Human Dermal Fibroblasts adult (HDFa) cell line (Cascade Biologics) was used in all experiments. Unless otherwise specified, cells were grown in the Dulbecco’s modified Eagle’s medium (DMEM) supplemented with 10 % fetal bovine serum (FBS) and 1× antibiotic and antimycotic solutions (all purchased from Sigma) and incubated at 310.15 K in the humidified 5 % CO2 atmosphere. The antiproliferative activity of compounds was assessed using the Cell Proliferation ELISA, BrdU (colorimetric) kit (Roche Applied Science). Cells were seeded at a number of 10^3 cells per well of 96-well tissue culture plate and incubated overnight at 310.15 K. The growth medium was substituted with the medium supplemented with tested compounds, and after 5 days of incubation, labelling with 5-bromo-2′-deoxyuridine (BrdU) was performed for another 24 h. Following steps were performed according to the manufacturer’s protocol.

For data set [4] the test system is unchanged. The experiment in a line: Cytoprotective activity against H2O2 oxidative damage (MTT). Format: cell-based. The method, then:
The Human Dermal Fibroblasts adult (HDFa) cell line (Cascade Biologics) was used in all experiments. Unless otherwise specified, cells were grown in the Dulbecco’s modified Eagle’s medium (DMEM) supplemented with 10 % fetal bovine serum (FBS) and 1× antibiotic and antimycotic solutions (all purchased from Sigma) and incubated at 310.15 K in the humidified 5 % CO2 atmosphere. Cells were plated at 2 × 10^3 cells per well of 96-well tissue culture plate. After an overnight incubation, cells were washed with DMEM without FBS and next treated with 1 mM hydrogen peroxide (H2O2) (Sigma) together with different concentrations of tested complex compounds or with 1 mM H2O2 alone to induce the oxidative damage to cells resulting in the necrotic death. Mixtures were prepared in the growth medium (DMEM) without FBS. Cells treated with the growth medium only were used as a control of normal viability. After 1-h incubation at 310.15 K, the medium was removed and cells were washed with the growth medium containing 10 % FBS to stop the H2O2 activity. Next, either the cell viability was assessed using the MTT solution (see previous paragraph) or additional incubation of cells in DMEM containing 10 % FBS for another 48 h was performed and then cells were tested for the viability (the MTT assay). The cytoprotective activity of complex compounds against the oxidative damage was calculated relatively to untreated control cells, not exposed to H2O2.

Another data set has as its system Enterococcus faecalis. Nature of the data set: Disc diffusion test. Format: cell-based. Particulars: E. faecalis. The method, then:
(§1) The antimicrobial activity of complex compounds was assessed against Bacillus subtilis, Escherichia coli, Enterococcus faecalis, Pseudomonas aeruginosa, Staphylococcus aureus, Staphylococcus epidermidis (all strains were from the collection of the Department of Molecular Biology, University of Gdańsk). All bacteria were cultured in the Luria-Bertani (LB) broth at 310.15 K in the air with shaking. LB agar plates were prepared by the supplementation of LB broth with the 1.5 % bacteriological agar. Stock solutions of complex compounds were freshly prepared in the LB broth at the concentration of 25 mg/mL. Aliquots of 0.05 mL of bacterial culture at the optical density at 600 nm of 0.1 (inoculum 5 × 10^6 cells per plate) were spread on LB agar plates. Sterile filter paper discs (of 6 mm diameter) were impregnated with solutions of complex compounds prepared in the deionized water at the following amounts: 0.1, 0.2, 0.5 and 1.0 mg per disc and placed on agar plates. After an overnight incubation at 310.15 K, zones of bacterial growth inhibition were measured. Neomycin at the amount of 0.1 mg/disc was used as a control.

In the next data set the test system is Staphylococcus aureus. The experiment in a line: Disc diffusion test. Type of data set: cell-based. Particulars: S. aureus. The method, then:
as §1

[5] abbreviates: 1 mM H2O2 with complex 1 h, then additional 48-h incubation in growth medium.
The mark [6] stands for this setting: 1 mM H2O2 with complex, 1-h exposure.

For `O.O.O.O=C(O)COCC(=O)O.[Co]` [Co(ODA), [Co(ODA)(H2O)2]·H2O], the ascorbic acid equivalents in data set [1] is 4.50. For the same molecule, the LC25 entry in data set [2] is reported as “Immeasurable”. The LC75 result in data set [2] is “Immeasurable”. In addition, the “viability of the cells” value is “no less than 95%” in data set [2] (24 h) and “about 90%” in data set [2] (48 h). Also, the cytotoxic effect entry in data set [2] (24 h) was “no significant cytotoxic effects”. The LC50 entry in data set [2] (24-h exposure time) and in data set [2] (48-h exposure time) was “Immeasurable” throughout. The molecule further yielded a 25% effect concentration (IC25) in data set [3] of 128.90 µM. Besides, the IC50 in data set [3] was 175 µM; in data set [3] (listed as Co(II) complex), about 200 µM. The molecule also showed an IC75 in data set [3] of over 1000 µM. For the same molecule, the viability of cells entry in data set [4] (1 mM H2O2 together with 500 μM complex, 1 h) is given as “ca. 100%”. The “cytoprotective activity against oxidative damage” value (“cytoprotective activity” below) in data set [4] (setting [5]) is “grow and proliferate at similar levels to untreated control cells”; in data set [4] (setting [6]), “highest dose- and time-dependent protective effect”. Besides, the “Zone of growth inhibition” value in the data set on Enterococcus faecalis (500 μg/disc) was found to be 10 mm; in the data set with Enterococcus faecalis (1000 μg/disc) it was 15 mm; in the data set with Staphylococcus aureus (100 μg/disc), 7 mm; with Staphylococcus aureus (500 μg/disc), 12 mm; in the data set with Staphylococcus aureus (1000 μg/disc), 17 mm.
As to `O.O.O.O.O.O.O.O.O.O=C([O-])COCC(=O)[O-].O=C([O-])COCC(=O)[O-].[Ni+2].[Ni+2]` [Ni(ODA), [Ni(ODA)(H2O)3]·1.5H2O], the ascorbic acid equivalents in data set [1] is 1.11. For the same molecule, the “viability of the cells” value is recorded as “no less than 95%” in data set [2] (24 h) and about 75% in data set [2] (48 h). In data set [2] (24 h), the cytotoxic effect result is given as “no significant cytotoxic effects”. Moreover, the LC50 entry in data set [2] (24-h exposure time) is on record as “Immeasurable”. In addition, the CC50 in data set [2] (48-h exposure time) came out at 1310 µM. The molecule further registered an IC25 in data set [3] of 148.65 µM. The 50% inhibitory concentration (IC50) in data set [3] was 220 µM; in data set [3] (listed as Ni(II) complex) it was about 200 µM. This molecule returned an IC75 in data set [3] of over 1000 µM. The “cytoprotective activity” value in data set [4] (setting [5]) and in data set [4] (setting [6]) was “no influence on the viability of cells” each time. Also, the results for the “Zone of growth inhibition” value in the data set on Staphylococcus aureus (500 μg/disc) and in the data set on Staphylococcus aureus (1000 μg/disc) were 7 mm and 8 mm, respectively.
As to `O.O.O=C([O-])COCC(=O)[O-].[O]=[V+2]` [VO(ODA), [VO(ODA)(H2O)2]], the ascorbic acid equivalents in data set [1] is reported as 0.35. In data set [2] (24 h), the cytotoxic effect entry was “exhibits the cytotoxic effect”. The CC50 in data set [2] (24-h exposure time) worked out at 296 µM; in data set [2] (48-h exposure time), 87.5 µM. In data set [3], this molecule came in with an IC25 of 23.41 µM. Moreover, the IC50 stood at 24.9 µM in data set [3] and 25 µM in data set [3] (listed as oxovanadium(IV) complex). Besides, in data set [3], the IC75 is 26.42 µM. In addition, the “cytoprotective activity” value in data set [4] (setting [5]) is listed as “induces the cell death”; in data set [4] (setting [6]) it was “to some extent, exhibits the cytoprotective activity”. For the same molecule, the “Zone of growth inhibition” value came out at 9 mm in the data set with Enterococcus faecalis (500 μg/disc) and 13 mm in the data set on Enterococcus faecalis (1000 μg/disc).
